Laboratory results: patent US9302991B2, “Arylamide derivatives as TTX-S blockers” (RaQualia Pharma Inc., priority 2010, dated 2016)

Target: T1, human Nav1.7 channels (Homo sapiens, UniProt Q15858)
T1 construct: expressed in transfected cells; host or cells: CHO
Experiment: FRET assay, human Nav1.7 (EFS on FDSS)
Assay type: cell-based
Details: CHO cells expressing human Nav1.7, read-out: IC50 against Nav1.7
Method: The inhibitory activities of compounds against voltage gated sodium channels are determined by methodology well known in the art.
The ability of the aryl substituted carboxamide derivatives of the formula (I) to inhibit the NaV1.3, Nav1.7 and Nav1.5 channels is measured by Fluorescence Resonance Energy Transfer (FRET) assay and electrophysiology assay described below.
This screen is used to determine the effects of compounds on human Nav1.3, human Nav1.7, and human Nav1.5 channels, utilising electrical field stimulation (EFS) system in 96-well plate format on FDSS (Hamamatsu Photonics) platform. The change of membrane potential is monitored with FRET dye pair, oxonol (DiSBAC2(3)) and coumarin (CC2-DMPE).
CHO cells expressing human Nav1.7 channels are grown in T225 flasks, in a 5% CO2 humidified incubator to about 80% confluence. Media composition consists of HAM/F12 with Glutamax 1.10% FCS, 100 units/mL Penicillin and 100 microgram/mL Hygromycin.
Protocol: • Seed each cell lines (1×10^5 cells/well) into poly-D-lysine coated 96-well plates prior to experimentation. • Incubate at 37° C. in 5% CO2 for 24 hours. • Wash each well with assay buffer (140 mM NaCl, 4.5 mM KCl, 10 mM D-Glucose, 2 mM CaCl2, 1 mM MgCl2, 10 mM HEPES, pH 7.4 adjusted with NaOH) twice. • Add 1st loading solution containing 10 microM CC2-DMPE and 0.06% Pluronic F-127 in assay buffer. • Incubate the plate at room temperature in dark for 1 hour. • Remove 1st loading solution and added 2nd loading solution containing 15 microM DiSBAC2(3), 0.555 mM VABSC-1 and 0.004% Pluronic F-127 in assay buffer. • Place the plate under the dark at room temperature for 25 minutes. • Add compound solutions into the assay plate. • Set the assay plate in FDSS and placed an EFS device on the plate. • Measure EFS-induced fluorescent response by FDSS.
The data are analyzed and reported as normalized ratios of intensities measured at […]. The process of calculating these ratios is performed as follows:
This analysis is performed using a computerized specific program designed for FDSS generated data. Fluorescence ratio values are plotted using XLfit to determine an IC50 value for each compound.

T1 sequence (Q15858 whole entry): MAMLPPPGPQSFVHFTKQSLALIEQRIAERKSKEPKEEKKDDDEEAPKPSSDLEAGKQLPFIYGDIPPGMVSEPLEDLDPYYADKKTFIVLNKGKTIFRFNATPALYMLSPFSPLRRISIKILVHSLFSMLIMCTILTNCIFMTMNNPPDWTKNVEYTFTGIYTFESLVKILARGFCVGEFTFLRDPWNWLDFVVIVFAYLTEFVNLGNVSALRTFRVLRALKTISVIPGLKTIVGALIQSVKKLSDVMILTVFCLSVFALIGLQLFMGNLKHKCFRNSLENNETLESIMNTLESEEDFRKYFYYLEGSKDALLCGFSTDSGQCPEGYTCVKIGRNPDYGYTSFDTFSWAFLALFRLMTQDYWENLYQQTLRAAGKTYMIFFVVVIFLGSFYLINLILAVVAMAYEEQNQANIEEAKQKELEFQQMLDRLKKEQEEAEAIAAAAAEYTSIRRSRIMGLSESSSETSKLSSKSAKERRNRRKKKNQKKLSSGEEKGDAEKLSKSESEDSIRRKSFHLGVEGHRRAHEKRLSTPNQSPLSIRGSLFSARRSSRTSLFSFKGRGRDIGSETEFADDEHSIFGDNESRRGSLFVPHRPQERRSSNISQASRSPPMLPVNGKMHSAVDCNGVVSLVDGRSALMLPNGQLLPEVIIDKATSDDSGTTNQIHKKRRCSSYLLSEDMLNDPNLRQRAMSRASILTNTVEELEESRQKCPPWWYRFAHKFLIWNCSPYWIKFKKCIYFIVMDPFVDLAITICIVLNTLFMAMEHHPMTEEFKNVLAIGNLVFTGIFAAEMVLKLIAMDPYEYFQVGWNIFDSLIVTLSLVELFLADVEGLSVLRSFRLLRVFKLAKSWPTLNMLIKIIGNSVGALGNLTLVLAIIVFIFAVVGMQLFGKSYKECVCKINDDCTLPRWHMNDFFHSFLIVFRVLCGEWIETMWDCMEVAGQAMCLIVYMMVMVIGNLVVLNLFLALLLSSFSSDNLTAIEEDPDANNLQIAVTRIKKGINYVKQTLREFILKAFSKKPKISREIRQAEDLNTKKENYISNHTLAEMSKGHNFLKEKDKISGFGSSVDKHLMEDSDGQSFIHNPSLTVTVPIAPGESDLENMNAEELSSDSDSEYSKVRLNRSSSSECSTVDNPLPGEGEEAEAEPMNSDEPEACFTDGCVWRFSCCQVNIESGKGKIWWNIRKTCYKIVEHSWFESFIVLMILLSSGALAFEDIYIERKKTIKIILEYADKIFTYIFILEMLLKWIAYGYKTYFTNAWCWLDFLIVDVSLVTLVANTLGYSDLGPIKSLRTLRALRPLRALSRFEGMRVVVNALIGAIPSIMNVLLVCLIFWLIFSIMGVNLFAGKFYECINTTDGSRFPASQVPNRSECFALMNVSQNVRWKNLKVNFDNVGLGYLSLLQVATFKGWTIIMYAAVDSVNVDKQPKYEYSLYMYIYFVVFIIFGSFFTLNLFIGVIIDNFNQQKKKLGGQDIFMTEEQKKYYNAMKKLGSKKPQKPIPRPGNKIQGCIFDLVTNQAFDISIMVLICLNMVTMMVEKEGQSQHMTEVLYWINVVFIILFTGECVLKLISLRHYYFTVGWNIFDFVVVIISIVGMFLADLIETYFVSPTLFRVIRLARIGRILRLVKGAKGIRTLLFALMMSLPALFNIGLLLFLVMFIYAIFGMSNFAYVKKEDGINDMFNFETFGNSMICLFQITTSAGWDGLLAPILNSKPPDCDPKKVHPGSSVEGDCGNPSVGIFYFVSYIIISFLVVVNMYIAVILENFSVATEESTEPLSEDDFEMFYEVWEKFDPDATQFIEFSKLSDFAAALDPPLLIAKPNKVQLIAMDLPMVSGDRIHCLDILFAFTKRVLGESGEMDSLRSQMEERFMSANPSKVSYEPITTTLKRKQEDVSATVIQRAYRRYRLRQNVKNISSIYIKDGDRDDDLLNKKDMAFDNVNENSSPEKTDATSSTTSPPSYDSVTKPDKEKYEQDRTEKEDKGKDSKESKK

Row | IC50 [nM] | SMILES
1 | < 1000 | CCC(=O)Nc1cc(C(=O)NC(C)c2ccc(OC(F)(F)F)cc2)cc(C)n1 (single isomer, unassigned) [Example 135, 2-methyl-6-propionamido-N-(1-(4-(trifluoromethoxy)phenyl)ethyl)isonicotinamide]
2 | < 1000 | CCC(=O)Nc1nccc(C(=O)NC(C)c2cnc(OCC(F)(F)F)c(Cl)c2)n1 (single isomer, unassigned) [Example 210, N-(1-(5-chloro-6-(2,2,2-trifluoroethoxy)pyridin-3-yl)ethyl)-2-propionamidopyrimidine-4-carboxamide]
3 | < 1000 | Cc1cc(C(=O)NC(C)c2cc(C(F)(F)F)ccc2F)cc(NC(=O)C(C)C)n1 (single isomer, unassigned) [Example 980, N-(1-(2-fluoro-5-(trifluoromethyl)phenyl)ethyl)-2-isobutyramido-6-methylisonicotinamide]
4 | < 1000 | Cc1cc(C(C)NC(=O)c2ccnc(NC(=O)C3CC3)c2)cnc1OCC(F)F (single isomer, unassigned) [Example 553, 2-(cyclopropanecarboxamido)-N-(1-(6-(2,2-difluoroethoxy)-5-methylpyridin-3-yl)ethyl)isonicotinamide]
5 | < 1000 | CC(=O)Nc1cc(C(=O)NCc2cc(F)c(OCC(F)(F)F)nc2C)cc(C)n1 [Example 312, 2-acetamido-N-((5-fluoro-2-methyl-6-(2,2,2-trifluoroethoxy)pyridin-3-yl)methyl)-6-methylisonicotinamide]
6 | < 1000 | Cc1cc(CNC(=O)c2ccnc(NC(=O)C3CC3)c2)ccc1OCC(F)F [Example 990, 2-(cyclopropanecarboxamido)-N-(4-(2,2-difluoroethoxy)-3-methylbenzyl)isonicotinamide]
7 | < 1000 | Cc1cc(C(=O)NC(C)c2ccc(OCC(F)F)c(C)c2)cc(NC(=O)C2CC2)n1 (single isomer, unassigned) [Example 866, 2-(cyclopropanecarboxamido)-N-(1-(4-(2,2-difluoroethoxy)-3-methylphenyl)ethyl)-6-methylisonicotinamide]
8 | < 1000 | Cc1cc(OCC(F)(F)F)ncc1CNC(=O)c1ccnc(NC(=O)C2CC2)n1 [Example 403, 2-(cyclopropanecarboxamido)-N-((4-methyl-6-(2,2,2-trifluoroethoxy)pyridin-3-yl)methyl)pyrimidine-4-carboxamide]
9 | < 1000 | CCC(=O)Nc1cc(C(=O)NCc2ccc(OCC(F)F)nc2OC)ccn1 [Example 1152, N-((6-(2,2-difluoroethoxy)-2-methoxypyridin-3-yl)methyl)-2-propionamidoisonicotinamide]
10 | < 1000 | COc1cc(C(C)NC(=O)c2cc(C)nc(NC(=O)C(C)C)c2)cnc1OCC(F)(F)F (single isomer, unassigned) [Example 487, 2-isobutyramido-N-(1-(5-methoxy-6-(2,2,2-trifluoroethoxy)pyridin-3-yl)ethyl)-6-methylisonicotinamide]
11 | < 1000 | C=CC(=O)Nc1cc(C(=O)NC(C)c2ccc(OCC(F)(F)F)nc2)cc(C)n1 (single isomer, unassigned) [Example 482, 2-acrylamido-6-methyl-N-(1-(6-(2,2,2-trifluoroethoxy)pyridin-3-yl)ethyl)isonicotinamide]
12 | < 1000 | CCc1cc(CNC(=O)c2ccnc(NC(=O)C3CC3)n2)cnc1OCC(F)F [Example 912, 2-(cyclopropanecarboxamido)-N-((6-(2,2-difluoroethoxy)-5-ethylpyridin-3-yl)methyl)pyrimidine-4-carboxamide]
13 | < 1000 | COc1cc(OC(F)(F)F)ccc1CNC(=O)c1ccnc(NC(=O)C(C)C)c1 [Example 869, 2-isobutyramido-N-(2-methoxy-4-(trifluoromethoxy)benzyl)isonicotinamide]
14 | < 1000 | Cc1cc(C(=O)NC(C)c2ccc(OCC(F)F)c(C)c2)cc(NC(=O)C(C)C)n1 (single isomer, unassigned) [Example 865, N-(1-(4-(2,2-difluoroethoxy)-3-methyphenyl)ethyl)-2-isobutyramido-6-methylisonicotinamide]
